Laboratory results published in PubChem BioAssay (NCI).
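Values below derive from 48-hour exposures of cells grown in 96-well plates, with endpoints linearly interpolated between the two concentrations bracketing the appropriate inhibition level. TGI denotes the concentration required for complete inhibition of growth.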

Columns and labels:
Experiment in all cases: growth of human tumour cells (NCI), 48 h
UACC-257 melanoma = tested on: UACC-257 melanoma
SK-MEL-2 melanoma = tested on: SK-MEL-2 melanoma
K-562 leukemia = tested on: K-562 leukemia
NCI-H23 lung = tested on: NCI-H23 lung
U251 CNS = tested on: U251 CNS
HOP-92 NSCLC = tested on: HOP-92 NSCLC
IGROV1 ovarian = tested on: IGROV1 ovarian
OVCAR-4 ovarian = tested on: OVCAR-4 ovarian
UACC-62 melanoma = tested on: UACC-62 melanoma
HCT-15 colon = tested on: HCT-15 colon
SW-620 colon = tested on: SW-620 colon
A498 renal = tested on: A498 renal
A549 NSCLC = tested on: A549 NSCLC
TK-10 renal = tested on: TK-10 renal
SF-539 CNS = tested on: SF-539 CNS
CCRF-CEM leukemia = tested on: CCRF-CEM leukemia
SK-OV-3 ovarian = tested on: SK-OV-3 ovarian
MCF7 breast = tested on: MCF7 breast
DU-145 prostate = tested on: DU-145 prostate

SMILES | TGI (UACC-257 melanoma) [µM] | TGI (SK-MEL-2 melanoma) [µM] | TGI (K-562 leukemia) [µM] | TGI (NCI-H23 lung) [µM] | TGI (U251 CNS) [µM] | TGI (HOP-92 NSCLC) [µM] | TGI (IGROV1 ovarian) [µM] | TGI (OVCAR-4 ovarian) [µM] | TGI (UACC-62 melanoma) [µM] | TGI (HCT-15 colon) [µM] | TGI (SW-620 colon) [µM] | TGI (A498 renal) [µM] | TGI (A549 NSCLC) [µM] | TGI (TK-10 renal) [µM] | TGI (SF-539 CNS) [µM] | TGI (CCRF-CEM leukemia) [µM] | TGI (SK-OV-3 ovarian) [µM] | TGI (MCF7 breast) [µM] | TGI (DU-145 prostate) [µM]
NC(=O)N/N=C(/Cc1nc2ccc(C(=O)c3ccccc3)cc2[nH]c1=O)C(=O)Nc1ccc(C(F)(F)F)cc1[N+](=O)[O-] | > 100 | > 100 | > 100 | > 100 | > 100 | > 100 | > 100 | > 100 | > 100 | > 100 | > 100 | > 100 | > 100 | > 100 | > 100 | > 100 | > 100 | – | –
COC(=O)C1=C(C(=O)OC)SC(=C2S[C@@H]3[C@@H]4C[C@H]([C@@H]3S2)[C@H]2C(=O)OC(=O)[C@@H]42)S1 | > 100 | > 100 | > 100 | > 100 | > 100 | > 100 | > 100 | > 100 | > 100 | > 100 | > 100 | > 100 | > 100 | > 100 | > 100 | > 100 | – | > 100 | > 100
Cc1cc(=O)[nH]c(NNC(C#N)c2c(O)ccc3ccccc23)n1 (stereo not given) | 19.8 | 27.8 | > 100 | 20.5 | 43.3 | 79.6 | 23.4 | 31.1 | 10.1 | 18.8 | 29.9 | – | 18.5 | 65.8 | 13.7 | > 100 | 52.6 | – | –
O=S(=O)(c1ccccc1)n1cc(C[P+](c2ccccc2)(c2ccccc2)c2ccccc2)c2ccccc21 | – | 5.87 | 14.2 | 17.8 | 15.8 | 5.53 | 16 | 22 | 17.8 | 30.5 | 17.1 | 30 | 24.8 | 16.9 | 16.8 | 12.8 | 7.86 | – | –
Cc1cnc2c(c1)C(=O)C1=C(OC(C)(C)CC1O)C2=O (stereo not given) | 27 | > 100 | 46.4 | 26.2 | 29.3 | 30.5 | 28.9 | 25.6 | 12.6 | 36.2 | 28.5 | – | 31.9 | 34.1 | 31.4 | 51.1 | 36.5 | – | –
O=C(O)CN1CCN(CC(=O)N2CCN(C(=O)OCc3ccccc3)CC2)CCN(CC(=O)O)CCN(CC(=O)N2CCN(C(=O)OCc3ccccc3)CC2)CC1 | > 100 | > 100 | > 100 | – | > 100 | > 100 | > 100 | > 100 | > 100 | > 100 | > 100 | > 100 | > 100 | > 100 | > 100 | > 100 | > 100 | > 100 | > 100
C[C@@H]1C2=CC[C@@]3(C)C(CCC3[C@H](C)[C@H]3C[C@@]4(C)O[C@@](c5cccnc5)(O3)OC4(C)C)[C@@H]2C2OC2[C@@]12CCC(=O)O2 (stereo not given in full) | > 100 | 58.6 | > 100 | > 100 | > 100 | 76.9 | > 100 | – | > 100 | > 100 | > 100 | > 100 | > 100 | > 100 | > 100 | > 100 | > 100 | – | –
O=C(Nc1cc(Cl)cc(Cl)c1)/C(Cc1nc2ccccc2[nH]c1=O)=N/NC(=O)c1ccncc1 | > 100 | > 100 | > 100 | – | > 100 | > 100 | > 100 | > 100 | > 100 | > 100 | > 100 | > 100 | > 100 | > 100 | > 100 | > 100 | > 100 | – | –
CC(=O)C(CN(C)C)C(c1ccccc1)c1c(O)c2ccccc2oc1=O (stereo not given) | > 100 | > 100 | > 100 | > 100 | > 100 | > 100 | > 100 | > 100 | > 100 | > 100 | > 100 | – | > 100 | > 100 | > 100 | > 100 | > 100 | – | –
CSc1nc(NC2OC(COC(C)=O)C(OC(C)=O)C(OC(C)=O)C2OC(C)=O)c(-c2csc(N)n2)c(=O)n1C (stereo not given) | > 100 | > 100 | > 100 | > 100 | > 100 | 63.1 | > 100 | 55.1 | 89.4 | > 100 | > 100 | > 100 | > 100 | > 100 | > 100 | > 100 | > 100 | – | –
CC1(S)CC2C(CC1Sc1ccccc1)C2(C)C (stereo not given) | > 100 | > 100 | > 100 | > 100 | > 100 | > 100 | > 100 | > 100 | – | > 100 | – | – | > 100 | > 100 | > 100 | > 100 | > 100 | – | –
